Data as given in patent publication US20050203174A1, “Combination therapies using leptomycin B” (Kosan Biosciences, Inc., priority 2004, published 2005).

Tested on: colon cancer cell line DLD-1
Test: Cell viability assay (CellTiter-Glo) and combination effect analysis of leptomycin B plus co-agent
Type: cell-based, Human
Details: combination with leptomycin B, DLD-1 cells, average CI over fraction affected 0.2 to 0.9; for Combination Index, LMB First: 24 hours of LMB, then drug added and incubated for 48 hours; for Combination Index, Co-Agent First: drug alone for 24 hours followed by addition of LMB for 48 hours; for Combination Index, Simultaneous: simultaneous exposure to LMB and drug for 72 hours, constant ratio of IC50s
Method: The efficacy of a combination of leptomycin B and specific chemotherapeutic co-agents was determined. The additive, synergistic, or antagonistic effect of the combination of leptomycin B and a co-agent was calculated for each administration regimen using Calcusyn software (Biosoft, Cambridge, United Kingdom). This software calculates a combination index using the following algorithm: CI=[D]1/[Dx]1+[D]2/[Dx]2 where • CI is the combination index; • [D]1 and [D]2 are the concentrations of the two agents being tested (i.e., LMB and the co-agent) that, in combination provide a response of x % in the assay; and • [Dx]1 and [Dx]2 are the concentrations of the two agents that, when used alone, produce a response of x % in the assay.
A CI value of one means the combined effect of the two agents is additive. A CI value of less than one means that the two agents act synergistically. A CI value of greater than one means that the two agents act antagonistically.
The area under the curve where the fraction affected of cells (FA) ranged from 0.2 to 0.9 was calculated, to generate average CI values as shown in Table 1 for colon cancer cell line DLD-1.
Human colon adenocarcinoma cell line, DLD-1, was obtained from American Type Culture Collection (Manassas, Va.). […] Leptomycin B was produced by fermentation of a high producing isolate from Streptomyces sp. […] LMB is also available from commercial sources, such as Sigma-Aldrich. Other anti-cancer agents were either purchased commercially (e.g., from Sigma Chemical Co. (St. Louis, Mo.) or from Sequoia Research Products (Oxford, UK)).
Cells were seeded in duplicate in 96-well microtiter plates at a density of 4,000 cells per well and allowed to attach overnight. Cells were treated with LMB and the corresponding cytotoxic drug at varying concentrations, ranging from 0.5 picomolar (“pM”) to 50 micromolar (“μM”), for 3 days. Cell viability was determined using the CellTiter-Glo luminescent cell viability assay (Promega). For the drug combination assay, cells were seeded in duplicate in 96-well plates (4,000 cells/well). […] Based on the IC50 values of each individual drug, combined drug treatment was designed at constant ratios of two drugs, i.e., equivalent to the ratio of their IC50. Three treatment schedules were used: The first schedule used simultaneous exposure to both LMB and drug for 72 hours. In the second schedule, the cells were exposed to 24 hours of LMB. The drug was then added to the cells and incubated for 48 hours. In the third schedule, cells were exposed to the drug alone for 24 hours followed by addition of LMB for 48 hours. Cell viability was determined by the CellTiter-Glo luminescent cell viability assay. Synergism, additivity, or antagonism was determined by median effect analysis using the combination index (CI) calculated using Calcusyn (Biosoft, Cambridge, UK), as described above.

Compound	Combination Index, LMB First	Combination Index, Co-Agent First	Combination Index, Simultaneous
C/C1=C/C[C@@H](/C(C)=C/c2csc(C)n2)OC(=O)C[C@H](O)C(C)(C)C(=O)[C@H](C)[C@@H](O)[C@@H](C)CCC1 [Epo D, epothilone D]	1.05 ± 0.03	0.92 ± 0.05	1.06 ± 0.10
O=C(CCCCCCC(=O)Nc1ccccc1)NO [SAHA, suberoylanilide hydroxamic acid]	0.91 ± 0.04	1.03 ± 0.11	0.88 ± 0.04
C=CCNC1=C2C[C@@H](C)C[C@H](OC)[C@H](O)[C@@H](C)/C=C(\C)[C@H](OC(N)=O)[C@@H](OC)/C=C\C=C(/C)C(=O)NC(=CC1=O)C2=O [17-AAG, 17-allylamino-17-demethoxygeldanamycin]	1.13 ± 0.05	0.91 ± 0.09	1.15 ± 0.06
Nc1ccn([C@@H]2O[C@H](CO)[C@@H](O)C2(F)F)c(=O)n1 [Gemcitabine, gemcitabine]	1.18 ± 0.05	0.71 ± 0.31	0.97 ± 0.25
CC[C@H](C)[C@@H](COC(Cc1ccccc1)C(=O)N[C@@H](CCS(C)(=O)=O)C(=O)OC(C)C)NC[C@@H](N)CS (stereo partly drawn) [L-744832]	0.82 ± 0.05	0.86 ± 0.11	0.84 ± 0.09
CCc1c2c(nc3ccc(OC(=O)N4CCC(N5CCCCC5)CC4)cc13)-c1cc3c(c(=O)n1C2)COC(=O)[C@]3(O)CC [Irinotecan, irinotecan]	0.77 ± 0.05	0.50 ± 0.001	0.92 ± 0.08
CC(O)(CS(=O)(=O)c1ccc(F)cc1)C(=O)Nc1ccc(C#N)c(C(F)(F)F)c1 (stereo not drawn) [Bicalutamide, bicalutamide]	1.48 ± 0.32	1.05 ± 0.02	1.02 ± 0.01
CCC1(c2ccc(N)cc2)CCC(=O)NC1=O (stereo not drawn) [Aminoglutethimide, aminoglutethimide]	0.82 ± 0.05	1.02 ± 0.18	0.89 ± 0.07
COc1cccc2c1C(=O)c1c(O)c3c(c(O)c1C2=O)C[C@@](O)(C(=O)CO)C[C@@H]3O[C@H]1C[C@H](N)[C@H](O)[C@H](C)O1 [Doxorubicin, doxorubicin]	0.96 ± 0.05	0.89 ± 0.01	0.84 ± 0.12
CC(=O)O[C@@]12CO[C@@H]1C[C@H](O)[C@@]1(C)C(=O)[C@H](O)C3=C(C)[C@@H](OC(=O)[C@H](O)[C@@H](NC(=O)OC(C)(C)C)c4ccccc4)C[C@@](O)([C@@H](OC(=O)c4ccccc4)[C@H]21)C3(C)C [Docetaxel, docetaxel]	1.06 ± 0.04	0.95 ± 0.07	1.19 ± 0.14
